Data from patent US20120315256A1, “USE OF TRANSFORMING GROWTH FACTOR - BETA 1 (TGF-B1) INHIBITOR PEPTIDES FOR THE TREATMENT OF CORNEAL FIBROSIS AND/OR HAZE” (DIGNA BIOTECH, S.I., priority 2010, published 2012).
Entries after “also recorded” stand apart in the source; their conditions may differ.

Assays:
[1] = tested on: Smad 7; assay: Western Blot against Smad7 in rabbit corneal fibroblasts treated with TGF-β; type: cell-based; conditions: primary culture; peptide 50 and 200 μg/ml
Method: (§1) Therefore, Western Blot and immunofluorescence studies were conducted to determine, from cells extracted from the in vivo studies, the signaling pathway used by the peptides administered topically. It should be emphasized that said studies were conducted on fibroblasts from rabbit cornea and not from rat cornea. This decision was made due to the difficulty entailed in isolating fibroblasts from rodent eyes.
(§2) Since the scientific literature repeatedly describes the TGF-β1 signaling pathways, the decision was made to go into depth in such pathways by means of the techniques described in the methodology section. Said pathways involve the study of the Smad protein family, specifically the study of the isoforms Smad2, 2/3 and 7.
(§3) To that end, protein extracts obtained from the primary culture of rabbit fibroblasts were treated with TGF-β1 at concentrations of 0, 3 and 5 ng/ml and, 50 and 200 μg/ml of peptide p17 and p144.

[2] = tested on: Smad 2/3; assay: Western Blot against Smad2/3 in rabbit corneal fibroblasts; type: cell-based; conditions: primary culture; peptide 50 and 200 μg/ml
Method: as §1, §2, §3

[3] = tested on: p-Smad2; assay: Western Blot against p-Smad2 in TGF-β1-treated primary culture of rabbit corneal fibroblasts; type: cell-based; conditions: for inhibition of the expression of p-Smad2: TGF-β1 treated
Method: as §1, §2, §3

[4] = tested on: Long-Evans rats; assay: Corneal damage with 1 N NaOH in rats: weekly follow-up of corneal haze and epithelial closure (photographs, ImageJ); type: in vivo, rat; conditions: for chemical lesions induced after corneal damage with 1N NaOH: after treatment, different experimentation groups; for corneal haze, significance treated at the fifth week vs. treated at day 0 / epithelial closure, significance treated at the fifth week vs. treated at day 0: fifth week vs day 0; for corneal haze, significance control vs. peptide / epithelial closure, significance control vs. peptide: Student's t-test; for corneal haze / epithelial closure: treated eye vs control eye, topical eye drops, fifth formulation, 1 N NaOH damage; for epithelial closure: fluorescein
Excerpt: In this study, domestic hens (Gallus gallus domesticus) aged between 12 and 16 months were initially used as experimental animals but due to the difficulty of the model, especially in relation to obtaining and handling the animals, it was decided to use Long-Evans rats. Furthermore, it was bibliographically verified that these animals are used for in vivo models for studying corneal fibrosis because they allow to follow the evolution of the damage with more precision since they are pigmented rats and, like humans, have a Bowman's membrane.
Male Long-Evans rats aged 10 weeks were used, divided into 5 groups: • Group 1: 12 rats, 6 treated with dexamethasone and 6 treated with mitomycin C. • Group 2: 12 rats, 6 treated with p17 of the first formulation (see section 1.1.2.b) and 6 treated with p144 of the first formulation (see section 1.1.2.b). • Group 3: 12 rats, 6 treated with p17 of the second formulation (see section 1.1.2.b) and 6 treated with p144 of the second formulation (see section 1.1.2.b). • Group 4: 12 rats, 6 treated with p17 of the third formulation (see section 1.1.2.b) and 6 treated with p144 of the third formulation (see section 1.1.2.b). • Group 5: 12 rats, 6 treated with p17 of the fourth formulation (see section 1.1.2.b) and 6 treated with p144 of the fourth formulation (see section 1.1.2.b). • Group 6: 12 rats, 6 treated with p17 of the fifth formulation (see section 1.1.2.b) and 6 treated with p144 of the fifth formulation (see section 1.1.2.b).
To perform the damage in the cornea, the animals were anesthetized with isoflurane and a 5 mm Whatman paper disc impregnated in 1 N NaOH for 30 seconds was applied to them in the central part of the eye. After the damage, they were washed with abundant physiological saline serum and an antibiotic ointment was applied to them to prevent possible infections in the affected area.
After conducting several in vivo studies with the previously described groups of animals, it could be concluded that the chemical damage occurring after the application of NaOH for 30 seconds caused an excessive lesion for the study which was to be conducted, therefore, it was decided to conduct new experiments reducing the time to 15 seconds.
It was randomly established that the left eye of each animal would act as a control and that the right eye would be the treated eye, such that the same animals acts as a control in addition to being treated. It must be pointed out that all the animals received antibiotic treatment in both eyes daily only during the first week of the study for the purposes of avoiding microbial keratitis.
Starting from 0.15% sodium hyaluronate (Hyabak 10 mL, Thea) without preservatives: • p144: 20 mg were dissolved in 5 ml of eye drops, […] of saturated concentrated NaOH were incorporated, stirring and adding in portions of 5 μl. It was sonicated until solubilization. To adjust the pH, 500 μl of 1M HEPES (4-(2-hydroxyethyl)-1-piperazineethanesulfonic acid) were added, such that the pH changed from 10.5 to 7 • p144 control: 40 μl of saturated NaOH and 500 μl of 1 M HEPES (final concentration of HEPES 50 mM) • p17: 20 mg were dissolved in 5 ml of the eye drops, it was sonicated until complete solubilization and it was incorporated to the vial with a 10 ml syringe and a blue needle to perforate the filter of the contained (final concentration 2 mg/ml) • p17 control: non-manipulated eye drops • Note: The formulations were maintained at 4° C. throughout the study.
Therefore, all the results shown in relation to in vivo will refer to this type of treatment.
The administration of the treatment was initiated twenty-four hours after the damage. After that time a follow-up of the damage was performed, which consisted of taking photographs at days 0, 7, 14, 21, 28 and 35. To take the photographs the animals were anesthetized with isoflurane. Photographs were taken of both the control eye (left) and of the treated eye (right) with and without fluorescein. […]

[5] = tested on: p-Smad2; assay: Immunofluorescence for p-Smad2 on rabbit corneal fibroblasts; type: cell-based; conditions: TGF-β1 treated fibroblasts
Method: as §1

| Compound | expression of Smad 7 [1] | expression of Smad 2/3 [2] | inhibition of the expression of p-Smad2 ([3]; peptide 50 μg/ml) | inhibition of the expression of p-Smad2 ([3]; peptide 200 μg/ml) | chemical lesions induced after corneal damage with 1N NaOH [4] | corneal haze, significance treated at the fifth week vs. treated at day 0 [4] | epithelial closure, significance treated at the fifth week vs. treated at day 0 [4] | corneal haze, significance control vs. peptide ([4]; fifth week) | epithelial closure, significance control vs. peptide ([4]; fifth week) | epithelial closure, significance control vs. peptide ([4]; fourth week) | corneal haze, significance control vs. peptide ([4]; second and fourth week) | corneal haze [4] | epithelial closure [4] | translocation of p-Smad2 to the nucleus [5] | clinical efficacy of drugs usually used in the treatment of corneal fibrosis ([4]; first experiment, Group 1) | effect on the signaling cascade of TGF-β1 ([3]; primary culture of rabbit corneal fibroblasts, Smad2, Smad2/3, Smad7) |
| --- | --- | --- | --- | --- | --- | --- | --- | --- | --- | --- | --- | --- | --- | --- | --- | --- |
| TSLDASIIWAMMQN (TGF-beta 1 inhibitor peptide) [p144] | not modified | not affected; also recorded: not modified | slight inhibition; also recorded: inhibiting the phosphorylation of Smad2 | reaching the values of the controls; also recorded: inhibiting the phosphorylation of Smad2 | decreases significantly | highly significant | highly significant | highly significant | highly significant | significant | significant | clear decrease; also recorded: significantly reversed | clear decrease; also recorded: significantly reversed | inhibited |  |  |
| CO[C@@]12[C@H](COC(N)=O)C3=C(C(=O)C(C)=C(N)C3=O)N1C[C@@H]1N[C@@H]12 [mitomycin C, reference compound] |  |  |  |  |  |  |  |  |  |  |  |  |  |  | correspond to those described in the scientific literature |  |
| KRIWFIPRSSWYERA (TGF-beta 1 inhibitor peptide) [p17] | not modified | not affected; also recorded: not modified |  |  | decreases significantly | highly significant | highly significant | highly significant | very significant |  |  | clear decrease; also recorded: significantly reversed | clear decrease; also recorded: significantly reversed | did not inhibit |  | does not have any effect |
